Experimental data published in ChEMBL document CHEMBL5465560, “Selectivity Literature for EUbOPEN Chemogenomic Library” (2024).

Assays:
[1] = target: Calcium/calmodulin-dependent protein kinase type II subunit gamma (Homo sapiens) (UniProt Q13555); test: Selectivity interaction (KinomeScan (DiscoverX)) EUB0001049a CAMK2G; details: at 1 µM
[2] = target: Calcium/calmodulin-dependent protein kinase type 1G (Homo sapiens) (UniProt Q96NX5); test: Selectivity interaction (KinomeScan (DiscoverX)) EUB0000229b CAMK1G; details: at 10 µM
[3] = target: Serine/threonine-protein kinase PRP4 homolog (Homo sapiens) (UniProt Q13523); test: Selectivity interaction (Kinase panel (KiNativ target engagement assay in Jurkat cells)) EUB0001635a PRPF4; format: cell-based; details: Selectivity number of off-targets 0.0, Selectivity number of targets 233.0, Source Knowledge https://www.sciencedirect.com/science/article/pii/S2451945619300674?via%3Dihub, at 1 µM
[4] = target: Mitogen-activated protein kinase 14 (Homo sapiens, UniProt Q16539); test: Selectivity interaction (ActivX KiNativ screen (kinase selectivity in THP-1 cell lysates)) EUB0000639a MAPK14; format: subcellular; details: lysate, at 1 µM
[5] = target: T1, Ephrin type-B receptor 2 (Homo sapiens) (UniProt P29323); test: Selectivity interaction (KinomeScan (DiscoverX)) EUB0000595a EPHB2; details: at 10 µM
T1 sequence (whole entry): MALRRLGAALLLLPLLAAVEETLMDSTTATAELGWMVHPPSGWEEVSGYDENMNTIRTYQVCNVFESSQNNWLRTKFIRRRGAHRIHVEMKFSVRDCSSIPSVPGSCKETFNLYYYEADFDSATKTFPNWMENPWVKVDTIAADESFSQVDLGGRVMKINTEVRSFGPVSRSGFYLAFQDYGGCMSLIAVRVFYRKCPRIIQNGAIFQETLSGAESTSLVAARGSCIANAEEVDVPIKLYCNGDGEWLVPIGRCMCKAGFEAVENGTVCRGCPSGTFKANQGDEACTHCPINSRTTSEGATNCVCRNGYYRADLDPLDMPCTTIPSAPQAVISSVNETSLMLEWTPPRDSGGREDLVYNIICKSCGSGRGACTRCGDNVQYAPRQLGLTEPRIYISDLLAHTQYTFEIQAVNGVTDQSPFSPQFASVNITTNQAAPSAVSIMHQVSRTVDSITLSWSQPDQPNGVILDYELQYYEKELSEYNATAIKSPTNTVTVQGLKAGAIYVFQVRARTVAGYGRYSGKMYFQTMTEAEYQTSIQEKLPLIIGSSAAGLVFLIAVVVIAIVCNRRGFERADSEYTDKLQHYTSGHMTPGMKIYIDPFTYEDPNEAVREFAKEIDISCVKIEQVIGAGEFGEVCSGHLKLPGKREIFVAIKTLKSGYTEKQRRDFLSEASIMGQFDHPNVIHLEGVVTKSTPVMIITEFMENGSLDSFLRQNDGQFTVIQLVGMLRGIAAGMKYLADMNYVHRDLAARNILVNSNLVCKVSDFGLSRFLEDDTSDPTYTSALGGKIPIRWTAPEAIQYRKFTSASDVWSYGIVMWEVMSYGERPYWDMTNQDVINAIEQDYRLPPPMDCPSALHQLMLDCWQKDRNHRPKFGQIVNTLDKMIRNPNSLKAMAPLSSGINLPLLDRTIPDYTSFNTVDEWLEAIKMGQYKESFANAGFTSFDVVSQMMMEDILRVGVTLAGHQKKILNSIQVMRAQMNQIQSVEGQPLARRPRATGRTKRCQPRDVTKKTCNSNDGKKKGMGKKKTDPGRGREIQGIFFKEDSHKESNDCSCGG

[6] = target: T2, Interleukin-1 receptor-associated kinase 4 (Homo sapiens) (UniProt Q9NWZ3); test: Selectivity interaction (KinomeScan (DiscoverX)) EUB0000092b IRAK4; details: at 10 µM
T2 sequence (whole entry): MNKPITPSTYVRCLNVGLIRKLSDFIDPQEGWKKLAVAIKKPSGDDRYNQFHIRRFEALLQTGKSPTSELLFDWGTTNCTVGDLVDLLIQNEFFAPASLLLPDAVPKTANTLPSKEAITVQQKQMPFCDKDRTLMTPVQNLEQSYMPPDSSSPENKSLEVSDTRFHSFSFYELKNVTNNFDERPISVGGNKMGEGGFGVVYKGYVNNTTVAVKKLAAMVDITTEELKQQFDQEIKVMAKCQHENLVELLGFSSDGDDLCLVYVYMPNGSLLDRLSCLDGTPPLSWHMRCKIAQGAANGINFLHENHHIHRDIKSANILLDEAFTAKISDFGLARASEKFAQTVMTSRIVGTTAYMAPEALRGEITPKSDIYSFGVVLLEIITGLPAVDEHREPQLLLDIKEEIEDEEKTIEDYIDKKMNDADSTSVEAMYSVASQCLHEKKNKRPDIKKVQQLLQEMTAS

[7] = target: 5-hydroxytryptamine receptor 1B (Homo sapiens) (UniProt P28222); test: Selectivity interaction (Panel of non-epigenetic targets (kinases, GPCRs, ion channels, and transporters, Eurofins) ) EUB0000271b HTR1B; details: at 1 µM
Chain of 5-hydroxytryptamine receptor 1B (Homo sapiens) (P28222 whole entry): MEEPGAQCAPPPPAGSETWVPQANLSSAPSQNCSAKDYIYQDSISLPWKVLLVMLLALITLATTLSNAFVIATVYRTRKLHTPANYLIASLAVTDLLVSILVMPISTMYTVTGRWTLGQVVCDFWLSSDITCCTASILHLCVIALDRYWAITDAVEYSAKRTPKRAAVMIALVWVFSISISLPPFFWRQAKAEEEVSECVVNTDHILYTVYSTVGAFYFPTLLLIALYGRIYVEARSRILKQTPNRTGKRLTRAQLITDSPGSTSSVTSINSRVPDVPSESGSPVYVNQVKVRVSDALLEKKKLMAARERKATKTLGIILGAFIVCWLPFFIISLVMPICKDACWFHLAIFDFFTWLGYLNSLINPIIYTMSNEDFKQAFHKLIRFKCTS

Chain of Calcium/calmodulin-dependent protein kinase type II subunit gamma (Homo sapiens) (Q13555 whole entry): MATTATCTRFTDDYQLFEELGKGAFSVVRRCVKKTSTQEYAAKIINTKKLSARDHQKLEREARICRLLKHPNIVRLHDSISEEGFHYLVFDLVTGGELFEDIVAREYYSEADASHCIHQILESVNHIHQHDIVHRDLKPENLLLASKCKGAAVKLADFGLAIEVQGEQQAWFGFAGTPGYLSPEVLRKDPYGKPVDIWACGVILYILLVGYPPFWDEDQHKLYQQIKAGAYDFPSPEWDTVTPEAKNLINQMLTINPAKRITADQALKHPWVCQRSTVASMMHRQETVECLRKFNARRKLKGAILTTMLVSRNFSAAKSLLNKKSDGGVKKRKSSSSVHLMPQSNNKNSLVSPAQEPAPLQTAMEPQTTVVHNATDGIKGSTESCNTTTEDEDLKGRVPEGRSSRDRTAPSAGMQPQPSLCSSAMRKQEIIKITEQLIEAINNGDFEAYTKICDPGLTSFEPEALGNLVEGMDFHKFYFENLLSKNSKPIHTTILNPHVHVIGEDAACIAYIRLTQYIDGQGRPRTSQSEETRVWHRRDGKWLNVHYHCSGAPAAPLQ
Chain of Calcium/calmodulin-dependent protein kinase type 1G (Homo sapiens) (Q96NX5 whole entry): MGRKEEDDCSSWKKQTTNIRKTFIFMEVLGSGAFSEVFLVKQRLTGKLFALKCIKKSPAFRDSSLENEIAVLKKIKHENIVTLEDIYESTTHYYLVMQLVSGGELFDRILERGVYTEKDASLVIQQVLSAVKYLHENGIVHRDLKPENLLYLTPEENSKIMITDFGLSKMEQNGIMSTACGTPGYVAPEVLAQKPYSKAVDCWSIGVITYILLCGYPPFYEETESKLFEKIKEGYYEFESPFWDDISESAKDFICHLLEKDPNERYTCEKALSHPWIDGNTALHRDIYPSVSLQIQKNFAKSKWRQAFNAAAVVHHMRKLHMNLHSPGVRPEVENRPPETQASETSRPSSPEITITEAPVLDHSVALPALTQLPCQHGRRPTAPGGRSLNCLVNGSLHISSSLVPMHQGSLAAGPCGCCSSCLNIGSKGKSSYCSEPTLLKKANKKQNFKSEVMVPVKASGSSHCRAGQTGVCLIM
Chain of Mitogen-activated protein kinase 14 (Q16539 whole entry): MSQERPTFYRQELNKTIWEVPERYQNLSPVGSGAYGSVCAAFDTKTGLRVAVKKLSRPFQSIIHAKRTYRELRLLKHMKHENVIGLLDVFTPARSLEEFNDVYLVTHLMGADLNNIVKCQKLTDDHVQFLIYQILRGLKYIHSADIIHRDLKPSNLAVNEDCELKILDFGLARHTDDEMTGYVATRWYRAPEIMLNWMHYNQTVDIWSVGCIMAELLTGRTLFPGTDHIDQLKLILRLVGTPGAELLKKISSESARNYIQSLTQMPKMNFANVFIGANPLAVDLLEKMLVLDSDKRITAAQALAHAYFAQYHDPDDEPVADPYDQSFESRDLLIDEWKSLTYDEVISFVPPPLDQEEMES
Chain of Serine/threonine-protein kinase PRP4 homolog (Homo sapiens) (Q13523 whole entry): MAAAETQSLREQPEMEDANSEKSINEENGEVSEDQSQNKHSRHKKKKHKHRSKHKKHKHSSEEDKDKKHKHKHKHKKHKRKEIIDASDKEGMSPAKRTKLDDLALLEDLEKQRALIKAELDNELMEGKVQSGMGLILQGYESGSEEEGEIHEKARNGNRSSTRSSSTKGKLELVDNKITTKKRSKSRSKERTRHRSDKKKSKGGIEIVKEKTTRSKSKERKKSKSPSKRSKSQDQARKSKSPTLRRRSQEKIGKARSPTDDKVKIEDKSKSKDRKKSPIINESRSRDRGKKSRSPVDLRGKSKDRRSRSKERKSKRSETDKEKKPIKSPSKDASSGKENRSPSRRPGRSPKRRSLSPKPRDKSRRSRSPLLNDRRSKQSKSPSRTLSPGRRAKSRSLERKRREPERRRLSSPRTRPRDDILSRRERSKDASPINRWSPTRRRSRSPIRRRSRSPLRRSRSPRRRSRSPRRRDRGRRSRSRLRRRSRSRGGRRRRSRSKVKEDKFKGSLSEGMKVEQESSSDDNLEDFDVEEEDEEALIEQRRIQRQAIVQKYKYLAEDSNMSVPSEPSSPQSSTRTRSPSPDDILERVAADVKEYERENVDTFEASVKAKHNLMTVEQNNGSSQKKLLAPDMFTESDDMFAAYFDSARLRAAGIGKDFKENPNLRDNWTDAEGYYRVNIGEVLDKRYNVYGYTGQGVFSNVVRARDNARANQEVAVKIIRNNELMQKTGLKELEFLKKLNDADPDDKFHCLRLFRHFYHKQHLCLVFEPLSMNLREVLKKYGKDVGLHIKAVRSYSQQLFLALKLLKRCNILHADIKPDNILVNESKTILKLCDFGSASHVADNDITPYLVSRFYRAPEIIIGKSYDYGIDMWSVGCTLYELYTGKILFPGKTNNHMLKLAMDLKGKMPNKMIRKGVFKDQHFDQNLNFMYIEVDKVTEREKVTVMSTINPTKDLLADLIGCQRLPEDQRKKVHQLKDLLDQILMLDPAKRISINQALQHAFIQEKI

COc1cc(Nc2nc(C)cc(-c3cnn4nc(OC)ccc34)n2)cc(C(F)(F)F)c1
% of control [1]: 90%

COc1cc(N(C)c2ccnc3ccc(C(F)(F)F)cc23)cc(OC)c1OC
% binding [2]: 95%

C=CC(=O)Nc1ccc(C(=O)Nc2[nH]nc3c2CN(C(=O)N[C@H](CN(C)C)c2ccccc2)C3(C)C)cc1
% of engagement [3]: -13.3%

CC[C@@H]1[C@H](F)C(=O)N[C@@H]1COc1nccc2cc(C(N)=O)c(OC)cc12 [ZIMLOVISERTIB]
% of inhibition [4]: -26.4%

COCC(=O)NC/C=C/c1ccc2ncnc(Nc3ccc(Oc4ccc(C)nc4)c(C)c3)c2c1 [CP-724714]
% of control [5]: 100%

CCC(=O)N1CCN(c2ccc(-n3c(=O)ccc4cnc5ccc(-c6cnc7ccccc7c6)cc5c43)cc2C(F)(F)F)CC1
% of control [6]: 90%

Cc1cc(C)cc([C@@H]2c3cc(C)ccc3NC(=O)CN2C(=O)c2ccc(Br)s2)c1
% of inhibition [7]: 6%
